Results reported in article PMC3771382 (ChemMedChem, 2012).

Tests used:
[1] = target: human GLP-1R (Homo sapiens, UniProt P43220); experiment: RIP1-CRE-Luc luciferase reporter; type: cell-based; details: HEK-GLP-1R cells transfected with RIP1-CRE-Luc; 4 h exposure
[2] = ref [8],[9]; cited from earlier work
[3] = test system: dipeptidyl peptidase IV (DPP-IV); details: ref [8],[9]; cited from earlier work

Chain of human GLP-1R (P43220 24-463): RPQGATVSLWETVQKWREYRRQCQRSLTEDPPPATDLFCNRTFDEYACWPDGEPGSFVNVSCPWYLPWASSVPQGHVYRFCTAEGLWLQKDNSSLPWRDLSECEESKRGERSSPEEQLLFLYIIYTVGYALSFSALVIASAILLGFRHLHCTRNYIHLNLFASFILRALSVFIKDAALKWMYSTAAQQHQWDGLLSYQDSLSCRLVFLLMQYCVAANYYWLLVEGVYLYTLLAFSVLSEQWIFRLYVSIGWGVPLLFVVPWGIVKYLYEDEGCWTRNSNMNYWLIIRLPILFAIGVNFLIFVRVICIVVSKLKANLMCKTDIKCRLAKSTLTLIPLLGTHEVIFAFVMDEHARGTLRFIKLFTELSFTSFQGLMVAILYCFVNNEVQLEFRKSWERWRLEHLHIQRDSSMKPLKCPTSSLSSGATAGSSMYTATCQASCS

| Compound | luciferase response (in words) [1] | fraction of secreted GLP-1 surviving intact to the systemic circulation [2] | t1/2, degradation by DPP-IV [3] |
| --- | --- | --- | --- |
| CC[C@H](C)[C@H](NC(=O)[C@H](Cc1ccccc1)NC(=O)[C@H](CCC(=O)O)NC(=O)[C@H](CCCCNC(=O)OC[C@H]1O[C@H](n2cnc3cc(C)c(C)cc32)[C@H](O)[C@@H]1OP(=O)(O)O[C@H](C)CNC(=O)CC[C@@]1(C)/C2=C(\C)C3=N/C(=C\C4=NC(=C(/C)C5=N[C@@](C)([C@H](N2)[C@@H]1CC(N)=O)[C@@](C)(CC(N)=O)[C@@H]5CCC(N)=O)/[C@@](C)(CC(N)=O)[C@@H]4CCC(N)=O)C(C)(C)[C@@H]3CCC(N)=O)NC(=O)[C@H](C)NC(=O)[C@H](C)NC(=O)[C@H](CCC(N)=O)NC(=O)CNC(=O)[C@H](CCC(=O)O)NC(=O)[C@H](CC(C)C)NC(=O)[C@H](Cc1ccc(O)cc1)NC(=O)[C@H](CO)NC(=O)[C@H](CO)NC(=O)[C@@H](NC(=O)[C@H](CC(=O)O)NC(=O)[C@H](CO)NC(=O)[C@@H](NC(=O)[C@H](Cc1ccccc1)NC(=O)[C@@H](NC(=O)CNC(=O)[C@H](CCC(=O)O)NC(=O)[C@H](C)NC(=O)[C@@H](N)Cc1c[nH]cn1)[C@@H](C)O)[C@@H](C)O)C(C)C)C(=O)N[C@@H](C)C(=O)N[C@@H](Cc1c[nH]c2ccccc12)C(=O)N[C@@H](CC(C)C)C(=O)N[C@H](C(=O)N[C@@H](CCCNC(=N)N)C(=O)NCC(=O)N[C@@H](CCCNC(=N)N)C(N)=O)C(C)C [compound 1] | concentration-dependent response | – | – |
| cyanocobalamin [B12] | did not produce any response | – | – |
| glucagon-like peptide-1 (7–36) amide [GLP-1] | – | 10–15% | 1 to 2 min |
